We go through two compounds from patent US8338481B2, “Alkoxyalkyl S-prenylthiosalicylates for treatment of cancer” (Ramot at Tel-Aviv University Ltd., priority 2009, dated 2012).

Experiment [1] deals with U87 cells (human glioblastoma cell line). As to conditions: U-87 cells; previously determined (Blum et al., Cancer Research 2005); read-out: IC50 of growth inhibition; cited from earlier work.
Experiment [2] has as its system Panc-1 cells (human pancreatic carcinoma cell line). The following applies: previously determined (Weisz et al., Oncogene 1999), read-out: IC50 of growth inhibition; cited from earlier work.
The subject of experiment [3] is U87 cells (human glioblastoma cell line). Kind of experiment: Inhibition of U87 cell growth (cell counting). In kind it is cell-based. As to conditions: U-87 cells. Here is the method:
(§1) Human glioblastoma U87 cells were obtained from American Tissue Culture Collection (ATCC) and grown in Dulbecco's modified Eagle medium (DMDM) containing 10% fetal calf serum, 2 mM L-glutamine, 100 U/mL penicillin, and 100 μg/mL streptomycin. The cells were incubated at 37° C. in a humidified atmosphere of 95% air and 5% CO2. Cells were plated in 24-well plates at a density of 5000 cells per well and grown for 24 hours. The medium was then replaced by a medium containing the desired concentration of methoxymethyl S-farnesylthiosalicylic acid and 0.1% DMSO, or by a medium containing 0.1% DMSO (control). Cells were maintained in culture for 5-7 days and then counted. Data are expressed as a percentage: (number cells in drug treated culture/number cells in control×100). Experiment was performed twice in quadruplicates and means±SD are represented graphically in FIG. 2.
(§2) To establish efficacy of the newly synthesized compound FTS-MOME, Applicants prepared cell growth assays using human cancer cell lines. […]
Next, to examine the effects of FTS-MOME on U-87 cell growth (i.e., growth inhibition), the cells were incubated with and without FTS-MOME for five (5) days and the live cells were counted as a percentage of control over concentration of FTS-MOME (μM). […]

For experiment [4], the system named is Panc-1 cells (human pancreatic carcinoma cell line). The experiment in a line: Inhibition of Panc-1 cell growth (cell counting). Type of experiment: cell-based. The method, then: as §1, with “Human pancreatic cancer Panc-1” for “Human glioblastoma U87”, “in drug-treated” for “in drug treated”, “in control culture×100). Experiments were” for “in control×100). Experiment was”, “FIG. 1.” for “FIG. 2.”
as §2
First, to examine the effects of FTS-MOME on panc-1 cell growth (i.e., growth inhibition), the cells were incubated with and without FTS-MOME for five (5) days and the live cells were counted as a percentage of control over concentration of FTS-MOME (μM). […]

Where [5] appears, read: concentration range of 6-100 μM, five days.

Where two headings read alike, the source gives them in different places.

For `CC(C)=CCC/C(C)=C/CC/C(C)=C/CSc1ccccc1C(=O)O` [FTS, S-trans, trans-farnesylthiosalicylic acid], the IC50 is 50 µM in experiment [1] and 35 µM in experiment [2].

On to `COCOC(=O)c1ccccc1SC/C=C(\C)CC/C=C(\C)CCC=C(C)C` [FTS-MOME, methoxymethyl S-farnesylthiosalicylate], for which the IC50 stood at 15 µM in experiment [3] (Homo sapiens, U-87 MG, 120 h, incubated five days, live cells counted as percentage of control, read-out: IC50 (concentration causing 50% inhibition of cell growth)) and 15 µM in experiment [4] (Homo sapiens, 120 h, incubated five days, live cells counted as percentage of control, read-out: IC50 (concentration causing 50% inhibition of cell growth)). Moreover, the “live cancer cell number” value in experiment [3] (setting [5]) and in experiment [4] (setting [5]) was “dose-dependent decrease” in each case.
